Values joined by “and” are separate entries in the source; they are usually repeats but may differ in a detail not shown here. Identical values can stand only once. “Also recorded” adds a separate entry of the source.
Experiments:
[1] = tested on: primary bovine mammary epithelial cells (pMEC); assay: Cytokine production in primary bovine mammary epithelial cells, unstimulated or LPS/MPLA (TLR 4 agonist) stimulated; assay type: cell-based
From the text: (§1) Chicken CATH2 is a host defense peptide that is naturally expressed in chicken heterophils and several tissues. […] LPS and MPLA serve as potent Toll-like Receptor 4 (TLR 4) agonists in this assay and induce high levels of proinflammatory cytokines such as interleukin 6 (IL-6) and tumor necrosis factor alpha (TNFα).

[2] = tested on: bovine peripheral blood mononuclear cells (PBMCs); assay: Cytokine production in bovine PBMCs after TLR 4 agonist stimulation; assay type: cell-based; settings: LPS or MPLA stimulation
From the text: as §1

[3] = tested on: Escherichia coli; assay: Lactating cow E. coli mastitis challenge model, Example 1; assay type: in vivo, Holstein Crossbred Cattle
Protocol: A frozen stock of E. coli was used to prepare a suspension of approximately 500 colony forming units/10 mL using standard site procedures. Standard plate counts were conducted on the challenge suspension immediately after preparation and after all animals were challenged. Details of the challenge inoculum preparation including concentration (CFU/10 mL) for the pre- and post-challenge preparation were documented and confirmed to be in range. Locally sourced healthy adult female Holstein Crossbred Cattle in the first, second, or third lactation were enrolled into the studies. Animals challenged with E. coli were susceptible to E. coli as determined by vaccination records and low serum titer to E. coli. Animals enrolled were confirmed to be between 14 and 35 days post-calving at enrollment. […] Following challenge quarters bacteriologically positive for E. coli were regarded as infected. Clinical mastitis was defined as a challenged quarter having a clinical score of at least 1 for either milk appearance or udder evaluation and an isolation of E. coli from the challenged quarter. Subclinical mastitis was defined as isolation of E. coli from the challenged quarter and elevated SSC in the absence of abnormal milk or udder score. This isolate elicits a moderate case of E. coli mastitis with body temperature increase in the first 24 hours post challenge and consistent local signs on udder appearance and milk quality.
In this study, animals were treated with 50 mg/10 mL at 12-hour intervals starting 12 hours prior to E. coli challenge. A total of 4 doses were administered by intramammary infusion. Dose administration concluded 24 hours after challenge. The objective of the study was to evaluate the potential for CATH2 to reduce the severity of clinical mastitis by modulation of the host immune response. The dose regimen was designed to ensure sufficient exposure in the absence of understanding the duration of the immunological effect driven by the peptide in cattle.
The experimental design was a randomized design with a one-way treatment structure replicated in 3 batches. […] Milk samples were collected for transcriptomic analysis and cytokine profiles in the whey at 12 hours post-challenge. Differential quantitative milk leukocyte counts were collected for 7 days post challenge.
One hundred fifty bovine milk samples were obtained in 3 separate cohorts and processed to whey. The whey samples were analyzed for total protein levels and the levels of 8 total cytokines using the developed MSD whey U-Plex method.

[4] = tested on: Escherichia coli; assay: E. coli intramammary challenge in lactating dairy cows, CATH2 and analogs, Example 2; assay type: in vivo, Holstein cows; settings: for overall protection against mastitis following IMM challenge with E. coli / intramammary infection observed / animals meeting criteria for clinical mastitis: 50 mg/10 mL; for intramammary infection observed: 4 treatments prior to challenge, vehicle 100%; for animals meeting criteria for clinical mastitis: 4 treatments twice daily for 2 days prior to challenge, vehicle 100.0%, FIG. 9; for milk concentrations of BSA, milk haptoglobin, milk amyloid A, IL-1 beta, IL-6, IL-8, IL-10 and TNFα: FIGS. 13-20
From the text: The objective of this study was to evaluate the efficacy of Cathelicidin-2 peptide analogs for reduction of incidence of clinical mastitis and severity of infection following Escherichia coli intramammary (IMM) infusion in lactating dairy cows. Healthy Holstein cows in their second or third lactation were selected based on culture negative results for mastitis pathogens and low somatic cell counts≤200,000. Enrolled animals were randomly assigned to treatment. Cows were commingled, housed and fed according to standard site procedures, and fitted with sensors to monitor activity. Cows were milked twice daily at regular intervals. The assigned treatment was administered following am and pm milkings starting 2 days prior to challenge. Four total treatments and the challenge were administered in the left front quarter. Treatment was administered twice daily for 2 days prior to challenge. The E. coli challenge material was administered to the treated quarter on the morning of Day 0 of study. The treatment regimen was designed to evaluate efficacy for prevention of the disease. All peptides were dosed at 50 mg/10 mL per dose. Milk samples were collected for analysis at 6-hour intervals on Day 0, and at each morning's milking from Day 1 through Day 7, and on Days 11 and 14.

[5] = tested on: S. aureus; assay: S. aureus challenge study, treatment at onset of clinical mastitis, Example 3; assay type: in vivo, Holstein or Holstein Crossbred cattle; settings: 6 doses at 50 mg/10 mL intramammary
Protocol: Bovine mastitis specific bacterial pathogens were used to experimentally infect periparturient cows and first lactation heifer Holstein or Holstein Crossbred cattle to test the efficacy of the CATH2 peptide in the treatment and prevention of clinical mastitis.
A frozen stock of S. aureus was used to prepare a suspension of approximately 600 colony forming units in 5 mL. Standard plate counts were conducted on the challenge suspension immediately after preparation and after all animals were challenged. Details of each challenge inoculum preparation including concentration (CFU/5 mL) for pre- and post-challenge preparation were documented and confirmed to be in range.
Quarters that were bacteriologically positive for S. aureus were regarded as infected. Clinical mastitis was defined as a challenged quarter having a clinical score of at least 1 for either milk appearance or udder evaluation with an isolation of S. aureus (≥100 cfu/mL) from the quarter within 2 days of clinical signs. Sub-clinical chronic mastitis was defined as isolation of S. aureus (≥100 cfu/mL) from a challenged quarter and elevated SCC (>200,000 cells/mL) in the absence of abnormal milk or udder score.
All treatments were administered in accordance with the randomization provided by the biometrician into the challenged quarter (left front) of the udder. Treatments were administered upon onset of clinical mastitis. In this model, onset is approximately 1 to 3 days post-challenge. Upon confirmation of clinical mastitis, treatments were administered at the next milking. Treatments were administered with a 10 mL syringe via intramammary infusion and recorded.
Each animal with clinical mastitis received a total of 6 doses at 50 mg/10 mL by intramammary infusion administered twice daily for 3 consecutive days.

[6] = tested on: bacteria; assay: Modified minimal bactericidal concentration assay in varying concentrations of milk; assay type: cell-based; settings: as little as 10% whole and skim milk
From the text: The CATH2 peptide has antibacterial activity where it causes membrane disruption and lysis of the bacterial cell. The peptide also has cytotoxic effects on eukaryotic cells at high concentrations due the high positive charge, +8, and its ability to integrate in the cell membrane, resulting in membrane disruption. To further understand the behavior of the peptide in the context of the mammary gland, the inventors investigated the antibacterial activity and cytotoxicity of the peptide in the presence of milk. […] This finding led the inventors to investigate the impact of milk protein binding on peptide activity.

[7] = tested on: E. coli challenge strain; assay: Antibacterial activity of 2 mg peptide in varying milk concentrations, 2-minute pre-incubation; assay type: cell-based
Protocol: In a follow up assay to better understand the impact of milk protein binding on antibacterial activity that may be seen in vivo, a ratio of peptide to milk protein was estimated. In this assay varying concentrations of milk in bacterial growth medium was incubated with 2 mg of peptide. Two minutes after adding peptide to the tube, 500 colony forming units (CFU)/mL of the E. coli challenge strain was added. The timing was purposeful for understanding how quickly the peptide can be completely bound. The low inoculum was also chosen intentionally to more closely replicate the dose provided in the in vivo challenge model, thereby providing a worst-case scenario on exposure to free peptide. […] The quantity of milk protein was enough to bind 2 mg of CATH2 peptide. The bacterial growth was evaluated at 1, 2, 4, 6, and 24 hours post inoculation. […] The lower level of detection was 10 CFU/mL and the upper level of quantification measured for the purposes of this assay was set to 1.5×10^5 CFU/mL.

[8] = tested on: Streptococcus uberis; assay: S. uberis challenge study, Example 4; assay type: in vivo, cattle
[9] = Dry off therapy: transcriptomics of udder secretions in healthy dry cows, Example 5; assay type: in vivo, Holstein cattle; settings: 400 mg/10 mL, 1-day post administration
Protocol: In an additional study, pregnant multiparous Holstein cattle were treated with a single dose of CATH2 at approximately 60 days prior to expected calving dates for this group of animals by intramammary infusion following milking. These animals were considered to be entering the so-called dry period in which animals are no longer milked until post-partition. The objective of this study was to understand the immunomodulatory activity of varying doses of CATH2 administered by intramammary infusion in healthy multiparous cows at dry off.
Udder secretion samples were collected 1, 2, and 7 days post administration. Samples were also collected from the neighboring Right Rear quarter as an untreated in animal control of varying immunological responses. The samples were processed for transcriptomics analysis to determine the healthy animal response to treatment alone.

[10] = Transcriptomics after treatment alone in the lactating cow model; assay type: in vivo; settings: 100 mg/10 mL, 12 hour post administration, lactating cows
From the text: Prior to challenge in the lactating cow model, there is a consistent treatment effect of CATH2 alone indicating a modulation of the animal immune response. In the lactating cow model, these shifts lead to an enhanced response in clearance of the E. coli and resolution of inflammation as compared to untreated controls.

RFGRFLRKIRRFRPKVTITIQ [CATH2, truncated 1-21 amino acid L-form of chicken cathelicidin 2 peptide]
proinflammatory cytokines (IL-6, TNFα) upon LPS or MPLA stimulation ([1]; LPS or MPLA (TLR 4 agonist) stimulation, FIG. 1): dose-dependent inhibition of proinflammatory cytokines | proinflammatory cytokines in healthy unstimulated bovine mammary epithelial cells ([1]; varying concentrations of the peptide, unstimulated): minor increase in proinflammatory cytokines | proinflammatory cytokines (IL-6, TNFα) in PBMCs [2]: effectively inhibits these proinflammatory cytokines | animals showing signs of clinical mastitis ([3]; 50 mg/10 mL intramammary, 4 doses at -12, 0, 12, 24 h, saline 95.65%): 8.70% | animals never positive for intramammary infection ([3]; 50 mg/10 mL intramammary, 4 doses, 20 of 23 animals): 86.96% and 87.0% | animals that never met criteria for clinical mastitis ([3]; 50 mg/10 mL intramammary, 4 doses, 21 out of 23 animals): 91.3% | animals qualifying for subclinical mastitis ([3]; 14-day study, saline 20 of 23): None | somatic cell count (SCC) ([3]; 6 hours post challenge, FIG. 6): notable increase in the SCC | milk whey cytokines (IL-1B, IL-6, IL-8/CXCL8, IL-10, TNFα) ([3]; 12 hr post-challenge, vs saline): significantly lower levels of key inflammatory cytokines; also recorded: reduction in peak cytokine responses | milk yield ([3]; AfiLab in-line system, each milking, FIG. 7): maintained high milk yields | BSA levels in the milk vs Saline control ([3]; all time points after Day 0 at 6 hours post-challenge, FIG. 8): statistically significantly reduced BSA levels | time of SCC return to baseline ([3]; bovine, in vivo): ≤ 24 hours post challenge | bacterial load in the milk ([3]; first 6 days, FIG. 4): significant inhibition of E. coli ability to establish infection | BSA return to baseline levels ([3]; milk from challenged quarter): ≤ 3 Study Day | animals not showing an increase in body temperature ([3]; rectal temperature, 22 of 23 animals): 95.7% | overall protection against mastitis following IMM challenge with E. coli [4]: best protection against mastitis | intramammary infection observed [4]: 52.94% | animals meeting criteria for clinical mastitis [4]: 47.06% | cows with normal challenged quarter ([4]; Day 6, vehicle 0%): 41.48% | milk concentrations of BSA, milk haptoglobin, milk amyloid A, IL-1 beta, IL-6, IL-8, IL-10 and TNFα [4]: lowest | cows demonstrating fever ([4]; vehicle 80.0%, FIG. 12): 41.2% | duration of fever ([4]; vehicle 5.5 h): 2.4 h | peak E. coli counts from the challenged quarter ([4]; vehicle >4.0): < 1.5 log10 CFU/mL | bacterial load post challenge ([4]; vs vehicle control, FIG. 10): greatest reduction in the bacterial load | BSA level in the milk ([4]; vs vehicle control, FIG. 13): lowest level of BSA in the milk | animals showing a positive response to treatment [5]: 55.6% | severity of disease [5]: reduction in bacterial counts and reduced somatic cell counts | animals achieving clinical cure ([5]; twice daily for 3 days): 33.3% | peptide antibacterial activity in the presence of milk [6]: completely inhibited | antibacterial activity in 10% and 20% milk [7]: some inhibition of bacterial growth | antibacterial activity in 30% whole milk ([7]; 2-minute incubation, 500 CFU/mL E. coli): completely block the antibacterial activity | antibacterial activity in bacterial medium alone ([7]; E. coli below level of detection (10 CFU/mL) at 1, 2, 4, 6, 24 h): completely bactericidal | animals meeting criteria for removal from study (Kaplan Meier analysis) ([8]; 50 mg/10 mL, 2 doses prior to challenge or 4 doses spanning challenge, FIG. 21): reduction in the number of animals meeting criteria for removal of study | incidence of clinical mastitis ([8]; 50 mg/10 mL, both regimens, FIG. 22): reduced incidence of clinical mastitis | progression of clinical mastitis, 4 dose regimen vs 2 dose regimen ([8]; 4 doses at -12, 0, 12, 24 hours): greater capacity to inhibit the progression of clinical mastitis | gene expression in udder secretions [9]: increased expression of: CCL24, CXCL2, IL1RAP, CXCR1, and CXCR2 | gene expression in milk [10]: increased expression of: CCL24, CXCL2, IL1RAP, CXCR1, and CXCR2

RCGRFLRKIRPFRRKVTITCQ [Analog 2, CATH2 1-21 analog]
overall protection against mastitis following IMM challenge with E. coli [4]: Relatively limited protection against mastitis | intramammary infection observed [4]: 94.74% | animals meeting criteria for clinical mastitis [4]: 95.74% | milk concentrations of BSA, milk haptoglobin, milk amyloid A, IL-1 beta, IL-6, IL-8, IL-10 and TNFα [4]: modulation on acute phase proteins and key cytokines

RFGRWLRKIRRYRGKVTITIQ [Analog 1, CATH2 1-21 analog]
overall protection against mastitis following IMM challenge with E. coli [4]: Relatively limited protection against mastitis | intramammary infection observed [4]: 94.74% | animals meeting criteria for clinical mastitis [4]: 78.95% | milk concentrations of BSA, milk haptoglobin, milk amyloid A, IL-1 beta, IL-6, IL-8, IL-10 and TNFα [4]: modulation on acute phase proteins and key cytokines

From patent publication US20240342242A1, “COMPOSITIONS AND METHODS FOR TREATING MASTITIS” (Zoetis Services LLC, priority 2021, published 2024)
